From patent US10399940B2, “Substituted pyrrolidines and methods of use” (AbbVie S.à.r.l., priority 2016, dated 2019) come the findings set out here.

Structures are written as SMILES. Read-outs that look alike come from different tables or passages of the source. Bounds are passed on as bounds.

In this assay the target is T1, F508delCFTR (Homo sapiens, UniProt P13569, DEL508-508).
T1 construct: expressed in transfected cells; host or cells: CFBE41o- (human lung derived epithelial cell line), doxycycline-inducible expression
T1 sequence (P13569 with tags, fused parts or gaps DEL508-508): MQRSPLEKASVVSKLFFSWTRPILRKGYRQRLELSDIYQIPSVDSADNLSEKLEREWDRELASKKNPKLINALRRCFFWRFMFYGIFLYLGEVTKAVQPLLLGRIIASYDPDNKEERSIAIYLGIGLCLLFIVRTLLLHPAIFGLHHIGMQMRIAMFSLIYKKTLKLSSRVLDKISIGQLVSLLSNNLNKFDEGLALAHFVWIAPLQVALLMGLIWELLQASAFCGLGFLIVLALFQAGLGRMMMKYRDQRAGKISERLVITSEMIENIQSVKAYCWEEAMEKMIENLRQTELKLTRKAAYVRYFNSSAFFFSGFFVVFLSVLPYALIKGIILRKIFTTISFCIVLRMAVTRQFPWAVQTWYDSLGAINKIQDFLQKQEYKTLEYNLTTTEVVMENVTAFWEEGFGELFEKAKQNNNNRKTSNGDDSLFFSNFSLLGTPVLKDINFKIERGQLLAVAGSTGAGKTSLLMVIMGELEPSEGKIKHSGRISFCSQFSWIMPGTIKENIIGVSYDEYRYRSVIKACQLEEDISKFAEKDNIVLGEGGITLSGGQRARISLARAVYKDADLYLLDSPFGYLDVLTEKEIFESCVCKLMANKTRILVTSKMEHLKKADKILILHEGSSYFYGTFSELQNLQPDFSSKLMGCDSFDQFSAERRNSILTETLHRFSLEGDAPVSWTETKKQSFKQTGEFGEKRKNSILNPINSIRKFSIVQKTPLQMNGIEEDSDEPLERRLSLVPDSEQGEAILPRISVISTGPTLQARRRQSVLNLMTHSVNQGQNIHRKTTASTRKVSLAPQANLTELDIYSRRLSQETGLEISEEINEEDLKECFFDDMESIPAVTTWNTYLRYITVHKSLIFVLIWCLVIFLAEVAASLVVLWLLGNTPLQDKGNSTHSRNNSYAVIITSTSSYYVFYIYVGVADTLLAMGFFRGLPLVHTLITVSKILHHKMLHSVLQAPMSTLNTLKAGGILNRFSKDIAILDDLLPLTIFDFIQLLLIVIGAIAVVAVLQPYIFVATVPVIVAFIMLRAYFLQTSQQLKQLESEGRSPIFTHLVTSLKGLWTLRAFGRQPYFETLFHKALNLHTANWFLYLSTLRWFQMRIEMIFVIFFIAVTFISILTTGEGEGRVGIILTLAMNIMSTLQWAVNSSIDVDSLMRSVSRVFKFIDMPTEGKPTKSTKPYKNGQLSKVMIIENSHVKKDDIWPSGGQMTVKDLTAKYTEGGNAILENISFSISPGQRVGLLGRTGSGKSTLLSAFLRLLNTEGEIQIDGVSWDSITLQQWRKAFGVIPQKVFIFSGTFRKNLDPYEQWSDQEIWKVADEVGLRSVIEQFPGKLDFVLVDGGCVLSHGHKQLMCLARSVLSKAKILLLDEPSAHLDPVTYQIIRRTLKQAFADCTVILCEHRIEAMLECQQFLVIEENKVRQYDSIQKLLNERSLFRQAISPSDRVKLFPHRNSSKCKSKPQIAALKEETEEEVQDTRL
Kind of assay: Cell Surface Expression-Horse Radish Peroxidase (CSE-HRP) assay. The conditions noted are these: CFBE41o-F508delCFTR-HRP cells; for Maximum % activity (with co-corrector): with co-corrector (2 μM); for Maximum % activity (with co-corrector) / Maximum % activity (without co-corrector): normalized to on-plate positive control, highest concentration 20 μM. Type of assay: cell-based. The procedure, abridged: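 Surface F508delCFTR-HRP was read by luminol luminescence after 18–24 h compound exposure at 33 °C, without or with 2 μM co-corrector. Doses were eight 3-fold steps from 20 μM, in doxycycline-induced (0.5 μg/mL, 72 h) CFBE41o- cells. % activity was scaled to the on-plate 2 μM positive control minus DMSO; EC50 came from a variable-slope sigmoid fit.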

Setting [1] is: test compound without co-corrector, 18-24 hours at 33° C., read-out: EC50 (without co-corrector).
Setting [2] is: with co-corrector (2 μM of 3-[(2R,4R)-4-({[1-(2,2-difluoro-1,3-benzodioxol-5-yl)cyclopropyl]carbonyl}amino)-7-methoxy-3,4-dihydro-2H-chromen-2-yl]benzoic acid), read-out: EC50 (with co-corrector).

One may read the EC50 as the concentration that produces a half-maximal response. `Cc1cc(C)c2cc(CO[C@H]3[C@H](C(C)(C)C)[C@@H](C(=O)O)N(C(=O)[C@@H]4CCCCO4)[C@H]3c3ccccc3C)c(Cl)nc2c1` [Example 236, (2S,3R,4S,5S)-3-tert-butyl-4-[(2-chloro-5,7-dimethylquinolin-3-yl)methoxy]-5-(2-methylphenyl)-1-[(2S)-oxane-2-carbonyl]pyrrolidine-2-carboxylic acid]: the “Maximum % activity (with co-corrector)” value is “+++ (≥350)”; the “Maximum % activity (without co-corrector)” value is “++ (≥100 and <200)”. Further, the EC50 under setting [1] was 1 to 10 µM. Also, under setting [2], the EC50 was 1 to 10 µM.

Regarding `COc1nc2c(C)ccc(C)c2cc1CO[C@H]1[C@H](C(C)(C)C)[C@@H](C(=O)O)N(C(=O)[C@@H]2CCCCO2)[C@H]1c1ccccc1C` [Example 237, (2S,3R,4S,5S)-3-tert-butyl-4-[(2-methoxy-5,8-dimethylquinolin-3-yl)methoxy]-5-(2-methylphenyl)-1-[(2S)-oxane-2-carbonyl]pyrrolidine-2-carboxylic acid], the “Maximum % activity (with co-corrector)” value is “+++ (≥350)” and the “Maximum % activity (without co-corrector)” value is on record as “+++ (≥200)”. In addition, under setting [1], the EC50 is 1 to 10 µM. In addition, the EC50 under setting [2] was below 1 µM.

Regarding `COc1nc2cc(C)cc(C)c2cc1CO[C@H]1[C@H](C(C)(C)C)[C@@H](C(=O)O)N(C(=O)[C@@H]2CCCCO2)[C@H]1c1ccccc1C` [Example 238, (2S,3R,4S,5S)-3-tert-butyl-4-[(2-methoxy-5,7-dimethylquinolin-3-yl)methoxy]-5-(2-methylphenyl)-1-[(2S)-oxane-2-carbonyl]pyrrolidine-2-carboxylic acid], the “Maximum % activity (with co-corrector)” value was “+++ (≥350)” and the “Maximum % activity (without co-corrector)” value was “+++ (≥200)”. For the same compound, the EC50 under setting [1] was 1 to 10 µM. The EC50 under setting [2] is below 1 µM.

As for `COc1ccccc1[C@H]1[C@@H](OCc2cc(C3CCC3)cnc2OC)[C@H](C(C)(C)C)[C@@H](C(=O)O)N1C(=O)[C@@H]1CCCCO1` [Example 239, (2S,3R,4S,5S)-3-tert-butyl-4-[(5-cyclobutyl-2-methoxypyridin-3-yl)methoxy]-5-(2-methoxyphenyl)-1-[(2S)-oxane-2-carbonyl]pyrrolidine-2-carboxylic acid], the “Maximum % activity (with co-corrector)” value is “+++ (≥350)”; the “Maximum % activity (without co-corrector)” value was “++ (≥100 and <200)”. The EC50 under setting [1] lay within 1 to 10 µM. The EC50 under setting [2] was below 1 µM.

Consider `COc1ccccc1[C@H]1[C@@H](OCc2cc(C(F)(F)F)cnc2OC)[C@H](C(C)(C)C)[C@@H](C(=O)O)N1C(=O)[C@@H]1CCCCO1` [Example 240, (2S,3R,4S,5S)-3-tert-butyl-5-(2-methoxyphenyl)-4-{[2-methoxy-5-(trifluoromethyl)pyridin-3-yl]methoxy}-1-[(2S)-oxane-2-carbonyl]pyrrolidine-2-carboxylic acid], for which the “Maximum % activity (with co-corrector)” value is given as “+++ (≥350)”; the “Maximum % activity (without co-corrector)” value is “++ (≥100 and <200)”. The EC50 under setting [1] lay in the range of 1 to 10 µM. Besides, the EC50 under setting [2] was below 1 µM.

`COc1ccccc1[C@H]1[C@@H](OCc2cc(C(C)(C)C)cnc2OC)[C@H](C(C)(C)C)[C@@H](C(=O)O)N1C(=O)[C@@H]1CCCCO1` [Example 241, (2S,3R,4S,5S)-3-tert-butyl-4-[(5-tert-butyl-2-methoxypyridin-3-yl)methoxy]-5-(2-methoxyphenyl)-1-[(2S)-oxane-2-carbonyl]pyrrolidine-2-carboxylic acid]: the “Maximum % activity (with co-corrector)” value is “+++ (≥350)” and the “Maximum % activity (without co-corrector)” value is “+++ (≥200)”. In addition, under setting [1], the EC50 was in the range of 1 to 10 µM. In addition, the EC50 under setting [2] was below 1 µM.

Regarding `COc1nc2c(C)cc(C)cc2cc1CO[C@H]1[C@H](C(C)(C)C)[C@@H](C(=O)O)N(C(=O)[C@@H]2CCCCO2)[C@H]1c1ccccc1C` [Example 242, (2S,3R,4S,5S)-3-tert-butyl-4-[(2-methoxy-6,8-dimethylquinolin-3-yl)methoxy]-5-(2-methylphenyl)-1-[(2S)-oxane-2-carbonyl]pyrrolidine-2-carboxylic acid], the “Maximum % activity (with co-corrector)” value was “+++ (≥350)”; the “Maximum % activity (without co-corrector)” value was “++ (≥100 and <200)”. Besides, the concentration giving a half-maximal response (EC50) under setting [1] lay within 1 to 10 µM. Moreover, under setting [2], the EC50 lay within 1 to 10 µM.

As for `COc1ncc(C2(C)CC2)cc1CO[C@H]1[C@H](C(C)(C)C)[C@@H](C(=O)O)N(C(=O)[C@@H]2CCCCO2)[C@H]1c1ccccc1C` [Example 243, (2S,3R,4S,5S)-3-tert-butyl-4-{[2-methoxy-5-(1-methylcyclopropyl)pyridin-3-yl]methoxy}-5-(2-methylphenyl)-1-[(2S)-oxane-2-carbonyl]pyrrolidine-2-carboxylic acid], the “Maximum % activity (with co-corrector)” value is reported as “+++ (≥350)” and the “Maximum % activity (without co-corrector)” value is “+++ (≥200)”. For the same compound, the EC50 under setting [1] was in the range of 1 to 10 µM. Besides, the EC50 under setting [2] was below 1 µM.

As for `COc1nc2c(C)cccc2cc1CO[C@H]1[C@H](C(C)(C)C)[C@@H](C(=O)O)N(C(=O)[C@@H]2CCCCO2)[C@H]1c1ccccc1C` [Example 244, (2S,3R,4S,5S)-3-tert-butyl-4-[(2-methoxy-8-methylquinolin-3-yl)methoxy]-5-(2-methylphenyl)-1-[(2S)-oxane-2-carbonyl]pyrrolidine-2-carboxylic acid], the “Maximum % activity (with co-corrector)” value is recorded as “+++ (≥350)”; the “Maximum % activity (without co-corrector)” value is “++ (≥100 and <200)”. Further, the EC50 under setting [1] is 1 to 10 µM. Besides, the EC50 under setting [2] was in the range of 1 to 10 µM.

`COc1ccc(C(C)(C)C)cc1CO[C@H]1[C@H](C(C)(C)C)[C@@H](C(=O)O)N(C(=O)OC(C)C)[C@H]1c1cccnc1OC(C)C` [Example 245, (2S,3R,4S,5S)-3-tert-butyl-4-[(5-tert-butyl-2-methoxyphenyl)methoxy]-1-{[(propan-2-yl)oxy]carbonyl}-5-{2-[(propan-2-yl)oxy]pyridin-3-yl}pyrrolidine-2-carboxylic acid]: the “Maximum % activity (with co-corrector)” value is “+++ (≥350)” and the “Maximum % activity (without co-corrector)” value is reported as “+++ (≥200)”. Also, the EC50 under setting [1] was in the range of 1 to 10 µM. Further, under setting [2], the EC50 lay in the range of 1 to 10 µM.

With `COc1ccc(C2(C)CCC2)cc1CO[C@H]1[C@H](C(C)(C)C)[C@@H](C(=O)O)N(C(=O)OC(C)C)[C@H]1c1cccnc1OC(C)C` [Example 246, (2S,3R,4S,5S)-3-tert-butyl-4-{[2-methoxy-5-(1-methylcyclobutyl)phenyl]methoxy}-1-{[(propan-2-yl)oxy]carbonyl}-5-{2-[(propan-2-yl)oxy]pyridin-3-yl}pyrrolidine-2-carboxylic acid], the “Maximum % activity (with co-corrector)” value is reported as “+++ (≥350)” and the “Maximum % activity (without co-corrector)” value is recorded as “+++ (≥200)”. Moreover, the EC50 under setting [1] was in the range of 1 to 10 µM. Also, the EC50 under setting [2] is below 1 µM.

On to `COc1ccc(C(C)(C)C)cc1CO[C@H]1[C@H](C(C)(C)C)[C@@H](C(=O)O)N(C(=O)[C@@H]2CCCO2)[C@H]1c1ccccc1C` [Example 247, (2S,3R,4S,5S)-3-tert-butyl-4-[(5-tert-butyl-2-methoxyphenyl)methoxy]-5-(2-methylphenyl)-1-[(2S)-oxolane-2-carbonyl]pyrrolidine-2-carboxylic acid], for which the “Maximum % activity (with co-corrector)” value is on record as “+++ (≥350)” and the “Maximum % activity (without co-corrector)” value is reported as “+++ (≥200)”. Under setting [1], the EC50 was 1 to 10 µM. Also, the EC50 under setting [2] is 1 to 10 µM.

For `COc1nc2c(C)ccc(C)c2cc1CO[C@H]1[C@H](C(C)(C)C)[C@@H](C(=O)O)N(C(=O)C2CCCCC2)[C@H]1c1cccnc1OC(C)C` [Example 248, (2S,3R,4S,5S)-3-tert-butyl-1-(cyclohexanecarbonyl)-4-[(2-methoxy-5,8-dimethylquinolin-3-yl)methoxy]-5-{2-[(propan-2-yl)oxy]pyridin-3-yl}pyrrolidine-2-carboxylic acid], the “Maximum % activity (with co-corrector)” value is “+++ (≥350)” and the “Maximum % activity (without co-corrector)” value is “+++ (≥200)”. In addition, the EC50 under setting [1] was in the range of 1 to 10 µM. In addition, the EC50 under setting [2] is 1 to 10 µM.

For the compound `C=C(CO[C@H]1[C@H](C(C)(C)C)[C@@H](C(=O)O)N(C(=O)[C@@H]2CCCCO2)[C@H]1c1ccccc1C)c1cc(C(F)(F)F)ccc1OC` [Example 249, (2S,3R,4S,5S)-3-tert-butyl-4-({2-[2-methoxy-5-(trifluoromethyl)phenyl]prop-2-en-1-yl}oxy)-5-(2-methylphenyl)-1-[(2S)-oxane-2-carbonyl]pyrrolidine-2-carboxylic acid], the “Maximum % activity (with co-corrector)” value is given as “+++ (≥350)” and the “Maximum % activity (without co-corrector)” value is “+++ (≥200)”. Besides, under setting [1], the EC50 fell in the range of 1 to 10 µM. Further, under setting [2], the EC50 was below 1 µM.

As to `COc1ncc(C(C)(C)C)cc1CO[C@H]1[C@H](C(C)(C)C)[C@@H](C(=O)O)N(C(=O)C2CCCCC2)[C@H]1c1cccnc1OC(C)C` [Example 250, (2S,3R,4S,5S)-3-tert-butyl-4-[(5-tert-butyl-2-methoxypyridin-3-yl)methoxy]-1-(cyclohexanecarbonyl)-5-{2-[(propan-2-yl)oxy]pyridin-3-yl}pyrrolidine-2-carboxylic acid], the “Maximum % activity (with co-corrector)” value is “+++ (≥350)”; the “Maximum % activity (without co-corrector)” value was “++ (≥100 and <200)”. In addition, the EC50 under setting [1] was below 1 µM. Also, under setting [2], the concentration for a half-maximal effect (EC50) was below 1 µM.
